Tests used:
PqqU (formerly YncD) [1] = molecular target: T1, PqqU (formerly YncD) (Escherichia coli, UniProt P76115); experiment: isothermal titration calorimetry; type: binding; conditions: 50 mM tris-HCl pH 7.4, 150 mM NaCl; LMNG-purified, excess detergent removed; PQQ as disodium salt, oxidized; curve not accurately fitted, Kd only stated as low to subnanomolar range
T1 construct: 10xHis-tagged PqqU from pET-20b-pqqU, expressed in E. coli BL21 (DE3) C41, purified from membranes (DDM or LMNG), 76 kDa monomer; 700 residues in full, 39-699 modelled
T1 sequence (P76115 24-700): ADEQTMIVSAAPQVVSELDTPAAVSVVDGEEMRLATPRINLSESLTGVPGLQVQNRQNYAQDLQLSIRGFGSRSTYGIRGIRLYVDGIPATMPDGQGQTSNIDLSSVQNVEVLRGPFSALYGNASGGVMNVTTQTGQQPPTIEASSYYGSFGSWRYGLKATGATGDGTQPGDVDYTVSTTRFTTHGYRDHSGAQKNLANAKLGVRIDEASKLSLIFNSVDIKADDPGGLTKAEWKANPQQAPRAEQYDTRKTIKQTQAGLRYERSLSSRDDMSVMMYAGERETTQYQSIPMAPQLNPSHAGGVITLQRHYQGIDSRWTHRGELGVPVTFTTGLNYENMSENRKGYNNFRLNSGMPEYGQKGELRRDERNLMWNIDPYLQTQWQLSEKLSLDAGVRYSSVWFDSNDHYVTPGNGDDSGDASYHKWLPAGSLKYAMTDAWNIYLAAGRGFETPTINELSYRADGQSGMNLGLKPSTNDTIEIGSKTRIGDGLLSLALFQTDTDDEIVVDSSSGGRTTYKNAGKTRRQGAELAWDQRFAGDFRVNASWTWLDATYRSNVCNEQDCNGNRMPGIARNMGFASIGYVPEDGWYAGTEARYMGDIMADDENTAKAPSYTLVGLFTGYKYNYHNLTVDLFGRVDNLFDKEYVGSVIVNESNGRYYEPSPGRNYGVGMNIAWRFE

PqqU (formerly YncD) [2] = molecular target: T1, PqqU (formerly YncD); experiment: cryo-EM structure of complex, […] Å; type: binding; conditions: 43 μM PqqU with 910 μM PQQ; LMNG micelle; single PQQ in internal extracellular-side cavity, loops 7 and 8 closed; no metal bound to PQQ

O=C(O)c1cc(C(=O)O)c2c(n1)C(=O)C(=O)c1cc(C(=O)O)[nH]c1-2 [PQQ]
Kd (PqqU (formerly YncD) [1]): likely with a Kd in the low to subnanomolar range
cryo-EM structure of complex, 1.99 Å (PqqU (formerly YncD) [2]): we used cryo-EM to resolve the structure of the PqqU-PQQ complex

Reference: article PMC12124388, “High-affinity PQQ import is widespread in Gram-negative bacteria” (Science Advances, 2025)
